Source: patent publication US11174250B2, “Substituted carboxamides as inhibitors of WDR5 protein-protein binding” (PROPELLON THERAPEUTICS INC., priority 2016, dated 2021)
pKd: −log10 of the molar value. Like-named read-outs stand apart in the source and are kept apart here.

Biological target: WDR5 protein (Homo sapiens (Human), UniProt P61964)
Test: Surface Plasmon Resonance (SPR) assay
Format: binding
Details: SPR; for residence time: τ=1/koff, read-out: Residence Time (t, min)
[1] = Table 1, read-out: WDR5 binding affinity (KD)
[2] = Table 2, read-out: WDR5 binding affinity SPR (KD)

pKd [1] | pKd [2] | residence time [min] | Structure (SMILES)
< 6.70 | < 6.70 |  | COc1cc(C(F)(F)F)c(C(=O)Nc2cc(-c3cc(CN4CCC(C(C)C)C4)ccc3F)ccc2N2CCN(C)CC2)cn1 (stereo in doubt) [Example 53, (R)—N-(2′-fluoro-5′-((3-isopropylpyrrolidin-1-yl)methyl)-4-(4-methylpiperazin-1-yl)-[1,1′-biphenyl]-3-yl)-6-methoxy-4-(trifluoromethyl)nicotinamide]
7.07 | 7.07 | 0.88 | CN1CCN(c2ccc(-c3cc(C(N)=O)c(O)cc3F)cc2NC(=O)c2c[nH]c(=O)cc2C(F)(F)F)CC1 [Example 4, N-(5′-carbamoyl-2′-fluoro-4′-hydroxy-4-(4-methylpiperazin-1-yl)-[1,1′-biphenyl]-3-yl)-6-oxo-4-(trifluoromethyl)-1,6-dihydropyridine-3-carboxamide]
7.54 | 7.54 | 1.88 | CN1CCN(c2ccc(-c3cc(OC(F)(F)F)ccc3F)cc2NC(=O)c2c[nH]c(=O)cc2C(F)(F)F)CC1 [Example 5, N-(2′-fluoro-4-(4-methylpiperazin-1-yl)-5′-(trifluoromethoxy)-[1,1′-biphenyl]-3-yl)-6-oxo-4-(trifluoromethyl)-1,6-dihydropyridine-3-carboxamide]
6.00 | 6.00 |  | COc1cccc(C(=O)Nc2cc(-c3cc(CN4CCOCC4)ccc3F)ccc2N2CCN(C)CC2)c1 [Example 10, N-(2′-fluoro-4-(4-methylpiperazin-1-yl)-5′-(morpholinomethyl)-[1,1′-biphenyl]-3-yl)-3-methoxybenzamide]
7.03 | 7.03 | 0.6 | Cc1c(F)ccc(C(=O)Nc2cc(-c3cc(CN4CCOCC4)ccc3F)ccc2N2CCN(C)CC2)c1Cl [Example 12, 2-chloro-4-fluoro-N-(2′-fluoro-4-(4-methylpiperazin-1-yl)-5′-(morpholinomethyl)-[1,1′-biphenyl]-3-yl)-3-methylbenzamide]
7.59 | 7.59 | 1.36 | COC(=O)c1ccc(F)c(-c2ccc(N3CCN(C)CC3)c(NC(=O)c3c[nH]c(=O)cc3C(F)(F)F)c2)c1 [Example 14, methyl 6-fluoro-4′-(4-methylpiperazin-1-yl)-3′-(6-oxo-4-(trifluoromethyl)-1,6-dihydropyridine-3-carboxamido)-[1,1′-biphenyl]-3-carboxylate]
7.85 | 7.85 | 4.25 | CN1CCN(c2ccc(-c3cc(CNC4CC4)ccc3F)cc2NC(=O)c2c[nH]c(=O)cc2C(F)(F)F)CC1 [Example 17, N-(5′-((cyclopropylamino)methyl)-2′-fluoro-4-(4-methylpiperazin-1-yl)-[1,1′-biphenyl]-3-yl)-6-oxo-4-(trifluoromethyl)-1,6-dihydropyridine-3-carboxamide]
7.15 | 7.15 | 1.44 | Cc1cc(C(=O)Nc2cc(-c3ccc(OC4CCOCC4)nc3F)ccc2N2CCN(C)CC2)cc(C)c1F [Example 19, 4-fluoro-N-(5-(2-fluoro-6-((tetrahydro-2H-pyran-4-yl)oxy)pyridin-3-yl)-2-(4-methylpiperazin-1-yl)phenyl)-3,5-dimethylbenzamide]
7.72 | 7.72 | 1.75 | CN1CCN(c2ccc(-c3cc(OCC4CC4)c(F)cc3F)cc2NC(=O)c2c[nH]c(=O)cc2C(F)(F)F)CC1 [Example 21, N-(5′-(cyclopropylmethoxy)-2′,4′-difluoro-4-(4-methylpiperazin-1-yl)-[1,1′-biphenyl]-3-yl)-6-oxo-4-(trifluoromethyl)-1,6-dihydropyridine-3-carboxamide]
7.77 | 7.77 | 2.3 | CN1CCN(c2ccc(-c3ccc(N4CCCC4)nc3F)cc2NC(=O)c2c[nH]c(=O)cc2C(F)(F)F)CC1 [Example 22, N-(5-(2-fluoro-6-(pyrrolidin-1-yl)pyridin-3-yl)-2-(4-methylpiperazin-1-yl)phenyl)-6-oxo-4-(trifluoromethyl)-1,6-dihydropyridine-3-carboxamide]
7.10 | 7.10 | 0.56 | CN1CCN(c2ccc(-c3cccc(CN4CCOCC4)c3F)cc2NC(=O)c2c[nH]c(=O)cc2C(F)(F)F)CC1 [Example 23, N-(2′-fluoro-4-(4-methylpiperazin-1-yl)-3′-(morpholinomethyl)-[1,1′-biphenyl]-3-yl)-6-oxo-4-(trifluoromethyl)-1,6-dihydropyridine-3-carboxamide]
5.30 | 5.30 |  | Cc1cccc(C(=O)Nc2cc(-c3cc(CN4CCOCC4)ccc3F)ccc2N2CCN(C)CC2)c1 [Example 24, N-(2′-fluoro-4-(4-methylpiperazin-1-yl)-5′-(morpholinomethyl)-[1,1′-biphenyl]-3-yl)-3-methylbenzamide]
6.99 | 6.99 | 0.94 | CN1CCN(c2ccc(-c3ccccc3F)cc2NC(=O)c2c[nH]c(=O)cc2C(F)(F)F)CC1 [Example 25, N-(2′-fluoro-4-(4-methylpiperazin-1-yl)-[1,1′-biphenyl]-3-yl)-6-oxo-4-(trifluoromethyl)-1,6-dihydropyridine-3-carboxamide]
< 6.70 | < 6.70 |  | COc1cc(C(F)(F)F)c(C(=O)Nc2cc(-c3cc(CN4CCC(N5CCOCC5)CC4)ccc3F)ccc2N2CCN(C)CC2)cn1 [Example 52, N-(2′-fluoro-4-(4-methylpiperazin-1-yl)-5′-((4-morpholinopiperidin-1-yl)methyl)-[,1′-biphenyl]-3-yl)-6-methoxy-4-(trifluoromethyl)nicotinamide]
< 6.70 | < 6.70 |  | COc1cc(C(F)(F)F)c(C(=O)Nc2cc(-c3cc(CN4CCN(C(C)=O)CC4)ccc3F)ccc2N2CCN(C)CC2)cn1 [Example 54, N-(5′-((4-acetylpiperazin-1-yl)methyl)-2′-fluoro-4-(4-methylpiperazin-1-yl)-[1,1′-biphenyl]-3-yl)-6-methoxy-4-(trifluoromethyl)nicotinamide]
< 6.70 | < 6.70 |  | COc1cc(C(F)(F)F)c(C(=O)Nc2cc(-c3cc(CN4CCC(F)CC4)ccc3F)ccc2N2CCN(C)CC2)cn1 [Example 55, N-(2′-fluoro-5′-((4-fluoropiperidin-1-yl)methyl)-4-(4-methylpiperazin-1-yl)-[1,1′-biphenyl]-3-yl)-6-methoxy-4-(trifluoromethyl)nicotinamide]
< 6.70 | < 6.70 |  | COc1cc(C(F)(F)F)c(C(=O)Nc2cc(-c3cc(CN4CC[C@@H](S(C)(=O)=O)C4)ccc3F)ccc2N2CCN(C)CC2)cn1 [Example 57, (R)—N-(2′-fluoro-4-(4-methylpiperazin-1-yl)-5′-((3-(methylsulfonyl)pyrrolidin-1-yl)methyl)-[1,1′-biphenyl]-3-yl)-6-methoxy-4-(trifluoromethyl)nicotinamide]
< 6.70 | < 6.70 |  | COc1cc(C(F)(F)F)c(C(=O)Nc2cc(-c3cc(CN(C)[C@H]4CCOC4)ccc3F)ccc2N2CCN(C)CC2)cn1 [Example 58, (S)—N-(2′-fluoro-5′-((methyl(tetrahydrofuran-3-yl)amino)methyl)-4-(4-methylpiperazin-1-yl)-[1,1′-biphenyl]-3-yl)-6-methoxy-4-(trifluoromethyl)nicotinamide]
< 6.70 | < 6.70 |  | COc1cc(C(F)(F)F)c(C(=O)Nc2cc(-c3cc(CN4CCOC(C)(C)C4)ccc3F)ccc2N2CCN(C)CC2)cn1 [Example 59, N-(5′-((2,2-dimethylmorpholino)methyl)-2′-fluoro-4-(4-methylpiperazin-1-yl)-[1,1′-biphenyl]-3-yl)-6-methoxy-4-(trifluoromethyl)nicotinamide]
7.41 | 7.41 | 2.5 | C[C@@H]1CN(c2ccc(-c3c(F)ccc(C#N)c3F)cc2NC(=O)c2c[nH]c(=O)cc2C(F)(F)F)C[C@H](C)N1C [Example 78, N-(3′-cyano-2′,6′-difluoro-4-((3S,5R)-3,4,5-trimethylpiperazin-1-yl)-[1,1′-biphenyl]-3-yl)-6-oxo-4-(trifluoromethyl)-1,6-dihydropyridine-3-carboxamide]
8.60 | 8.60 | 16.4 | C[C@@H]1CN(c2ccc(-c3cc(CNC4CCCCC4)c(F)cc3F)cc2NC(=O)c2c[nH]c(=O)cc2C(F)(F)F)C[C@H](C)N1C [Example 79, N-(5′-((cyclohexylamino)methyl)-2′,4′-difluoro-4-((3S,5R)-3,4,5-trimethylpiperazin-1-yl)-[1,1′-biphenyl]-3-yl)-6-oxo-4-(trifluoromethyl)-1,6-dihydropyridine-3-carboxamide]

Structure (SMILES) | pKd [1] | pKd [2] | residence time [min]
CN1CCN(c2ccc(-c3cc(CN4CCOCC4)ccc3F)cc2NC(=O)c2n[nH]c(=O)cc2C(F)(F)F)CC1 [Example 20, N-(2′-fluoro-4-(4-methylpiperazin-1-yl)-5′-(morpholinomethyl)-[1,1′-biphenyl]-3-yl)-6-oxo-4-(trifluoromethyl)-1,6-dihydropyridazine-3-carboxamide] | 7.12 | 7.12 | 0.41
COc1cc(C(F)(F)F)c(C(=O)Nc2cc(-c3cc(CN4C5COCC4C5)ccc3F)ccc2N2CCN(C)CC2)cn1 [Example 56, N-(5′-(3-oxa-6-azabicyclo[3.1.1]heptan-6-ylmethyl)-2′-fluoro-4-(4-methylpiperazin-1-yl)-[1,1′-biphenyl]-3-yl)-6-methoxy-4-(trifluoromethyl)nicotinamide] | < 6.70 | < 6.70 | 
CN1CCN(c2ccc(-c3cc(CN4CCOCC4)ccc3F)cc2NC(=O)c2c[nH]c(=O)cc2C(F)(F)F)CC1COC(=O)C(C)(C)C (stereo not shown) [Example 64, (4-(2′-fluoro-5′-(morpholinomethyl)-3-(6-oxo-4-(trifluoromethyl)-1,6-dihydropyridine-3-carboxamido)-[1,1′-biphenyl]-4-yl)-1-methylpiperazin-2-yl)methyl pivalate] | < 6.70 | 6.99 | 
